Assays:
Format in all cases: physicochemical
[1] = CIELAB color data and optical density of printed ink patches (Gretag-McBeth Spectolino/Spectrascan); conditions: dye alone in ink
Text: CIELAB Color System-Space: The CIELAB color system was established by the Commission Internationale de l'Eclairage (CIE) in 1976. It is color space to be used for the specification of color differences. The L* is a correlate to perceived lightness ranging from 0.0 for black to 100.0 for a diffuse white. The a* and b* dimensions correlate approximately with red-green and yellow-blue chroma perceptions. They take on both negative and positive values. Their maximum values are limited by the physical properties of materials. The color difference (ΔE*ab) between two color points. (L*[…]) and (L*2, a*2, b2), is defined by the distance between the two points and computed by ΔE*ab=[(L*2−L*1)^2+(a*2−a*1)^2+(b*2−b*1)^2]^1/2
The cylindrical coordinate system provides predictors of lightness. L*, chroma, C*, and hue, H*. The chroma correlates the colorfulness of an area and the hue correlates the types of colors such as red, green, blue, yellow, etc. The relationship among a*, b*, C* and H* is given by C*=[a*2+b*2]^1/2 H*=tan^−1(b*/a*) a*=C* cos(H*) b*=C* sin(H*)
(§1) The color data was collected on a Gretag-McBeth Spectolino/Spectrascan with 100% coverage patches printed on Kodak Premium Photo Paper. Permanence was evaluated by measuring the relative fade of 0.6 OD yellow block printed on Ilford Printasia Glossy Photo Paper after 504 hours of exposure to 43-kLux cool white fluorescent illumination.

[2] = Aqueous solubility of dye
[3] = Permanence: relative fade of 0.6 OD yellow block under fluorescent illumination; conditions: dye alone in ink; for permanence (relative fade): 0.6 OD block on Ilford Printasia Glossy Photo Paper, 504 hours, 43-kLux cool white fluorescent, higher = more fade
Procedure: as §1

[4] = 3% by weight, Kodak Premium Photo Paper

| Molecule | H* (hue) ([1]; 3% by weight) | a* ([1]; 3% by weight) | b* ([1]; 3% by weight) | optical density ([1]; 3% by weight) | C* (chroma) [1, 4] | aqueous solubility [2] | lightfastness / permanence (in words) ([3]; 3% by weight) | permanence (relative fade) ([3]; 3% by weight) | C* (chroma) ([1]; 3.4% by weight) | H* (hue) ([1]; 3.4% by weight) | a* ([1]; 3.4% by weight) | b* ([1]; 3.4% by weight) | optical density ([1]; 3.4% by weight) | permanence (relative fade) ([3]; 3.4% by weight) |
| --- | --- | --- | --- | --- | --- | --- | --- | --- | --- | --- | --- | --- | --- | --- |
| O=C([O-])C1=NN(c2ccc(S(=O)(=O)[O-])cc2)C(=O)C1N=Nc1ccc(S(=O)(=O)[O-])cc1.[Na+].[Na+].[Na+] (centres unmarked) [Acid Yellow 23, reference compound] | 89.5 | 1.0 | 110.3 | 1.5 | 110.3 | 40% | extremely poor lightfastness | 86.6% |  |  |  |  |  |  |
| Acid Yellow 17 | 96.3 | −10.8 | 92.6 | 1.3 | 93.2 | 19% | much better permanence | 27.9% |  |  |  |  |  |  |
| Direct Yellow 132 |  |  |  |  |  | 13% |  |  | 106.7 | 86.9 | 5.9 | 106.3 | 1.7 | 18% |
